Reference: the supplement of paper PMC10307832

Columns and labels:
Experiment in all cases: relative viability (nuclei count vs DMSO), 5 days (fraction); higher = more cells survive
SK-LU-1 = tested on: SK-LU-1
Method in brief: (§1)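 Lung cancer cell lines were pin-tool dosed in 1536-well plates on the day after seeding, with either a lone drug or a fixed anchor-drug dose plus five library-drug doses (not always all listed) in √10 steps. Nuclei were counted on 4× images after 5 days. Relative viability is the ratio of treated-well to vehicle-well nuclei counts, with each value a median of duplicate plates.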

ChaGo-K-1 = tested on: ChaGo-K-1
Method in brief: as §1

LU99A = tested on: LU99A
Method in brief: as §1

UMC-11 = tested on: UMC-11
Method in brief: as §1

NCI-H2405 = tested on: NCI-H2405
Method in brief: as §1

LCLC-97TM1 = tested on: LCLC-97TM1
Method in brief: as §1

NCI-H2228 = tested on: NCI-H2228
Method in brief: as §1

LK-2 = tested on: LK-2
Method in brief: as §1

NCI-H522 = tested on: NCI-H522
Method in brief: as §1

NCI-H1355 = tested on: NCI-H1355
Method in brief: as §1

HCC-827 = tested on: HCC-827
Method in brief: as §1

NCI-H1993 = tested on: NCI-H1993
Method in brief: as §1

PC-3 [JPC-3] = tested on: PC-3 [JPC-3]
Method in brief: as §1

H3255 = tested on: H3255
Method in brief: as §1

NCI-H3122 = tested on: NCI-H3122
Method in brief: as §1

LXF-289 = tested on: LXF-289
Method in brief: as §1

NCI-H441 = tested on: NCI-H441
Method in brief: as §1

EKVX = tested on: EKVX
Method in brief: as §1

NCI-H2170 = tested on: NCI-H2170
Method in brief: as §1

NCI-H1650 = tested on: NCI-H1650
Method in brief: as §1

EPLC-272H = tested on: EPLC-272H
Method in brief: as §1

HOP-62 = tested on: HOP-62
Method in brief: as §1

SW 1573 = tested on: SW 1573
Method in brief: as §1

Compound: CCNC(=O)c1noc(-c2cc(C(C)C)c(O)cc2O)c1-c1ccc(CN2CCOCC2)cc1 [Luminespib] + CC(=O)c1c(C)c2cnc(Nc3ccc(N4CCNCC4)cn3)nc2n(C2CCCC2)c1=O [Palbociclib] (partner 0.5 µM)
- relative viability (SK-LU-1; first compound 0.002 µM): 0.456
- relative viability (SK-LU-1; first compound 0.006325 µM): 0.318
- relative viability (SK-LU-1; first compound 0.02 µM): 0.294
- relative viability (SK-LU-1; first compound 0.06325 µM): 0.186
- relative viability (SK-LU-1; first compound 0.2 µM): 0.194
- relative viability (ChaGo-K-1; first compound 0.002 µM): 0.813
- relative viability (ChaGo-K-1; first compound 0.006325 µM): 0.888
- relative viability (ChaGo-K-1; first compound 0.02 µM): 0.963
- relative viability (ChaGo-K-1; first compound 0.06325 µM): 0.925
- relative viability (ChaGo-K-1; first compound 0.2 µM): 0.82
- relative viability (LU99A; first compound 0.002 µM): 0.369
- relative viability (LU99A; first compound 0.006325 µM): 0.379
- relative viability (LU99A; first compound 0.02 µM): 0.272
- relative viability (LU99A; first compound 0.06325 µM): 0.428
- relative viability (LU99A; first compound 0.2 µM): 0.417
- relative viability (UMC-11; first compound 0.002 µM): 0.32
- relative viability (UMC-11; first compound 0.006325 µM): 0.303
- relative viability (UMC-11; first compound 0.02 µM): 0.296
- relative viability (UMC-11; first compound 0.06325 µM): 0.273
- relative viability (UMC-11; first compound 0.2 µM): 0.2
- relative viability (NCI-H2405; first compound 0.002 µM): 0.557
- relative viability (NCI-H2405; first compound 0.02 µM): 0.417
- relative viability (NCI-H2405; first compound 0.06325 µM): 0.172
- relative viability (NCI-H2405; first compound 0.2 µM): 0.164
- relative viability (LCLC-97TM1; first compound 0.002 µM): 0.214
- relative viability (LCLC-97TM1; first compound 0.006325 µM): 0.227
- relative viability (LCLC-97TM1; first compound 0.06325 µM): 0.248
- relative viability (LCLC-97TM1; first compound 0.2 µM): 0.205
- relative viability (NCI-H2228; first compound 0.002 µM): 0.752
- relative viability (NCI-H2228; first compound 0.006325 µM): 0.616
- relative viability (NCI-H2228; first compound 0.02 µM): 0.121
- relative viability (NCI-H2228; first compound 0.06325 µM): 0.119
- relative viability (NCI-H2228; first compound 0.2 µM): 0.104
- relative viability (LK-2; first compound 0.002 µM): 0.679
- relative viability (LK-2; first compound 0.006325 µM): 0.563
- relative viability (LK-2; first compound 0.02 µM): 0.351
- relative viability (LK-2; first compound 0.06325 µM): 0.0849
- relative viability (LK-2; first compound 0.2 µM): 0.0745
- relative viability (NCI-H522; first compound 0.002 µM): 0.848
- relative viability (NCI-H522; first compound 0.006325 µM): 0.937
- relative viability (NCI-H522; first compound 0.02 µM): 0.764
- relative viability (NCI-H522; first compound 0.06325 µM): 0.861
- relative viability (NCI-H522; first compound 0.2 µM): 0.411
- relative viability (NCI-H1355; first compound 0.002 µM): 0.415
- relative viability (NCI-H1355; first compound 0.006325 µM): 0.383
- relative viability (NCI-H1355; first compound 0.02 µM): 0.257
- relative viability (NCI-H1355; first compound 0.06325 µM): 0.367
- relative viability (NCI-H1355; first compound 0.2 µM): 0.222
- relative viability (HCC-827; first compound 0.002 µM): 0.492
- relative viability (HCC-827; first compound 0.006325 µM): 0.473
- relative viability (HCC-827; first compound 0.02 µM): 0.326
- relative viability (HCC-827; first compound 0.06325 µM): 0.178
- relative viability (HCC-827; first compound 0.2 µM): 0.148
- relative viability (NCI-H1993; first compound 0.002 µM): 0.714
- relative viability (NCI-H1993; first compound 0.006325 µM): 0.611
- relative viability (NCI-H1993; first compound 0.02 µM): 0.473
- relative viability (NCI-H1993; first compound 0.06325 µM): 0.716
- relative viability (NCI-H1993; first compound 0.2 µM): 0.413
- relative viability (PC-3 [JPC-3]; first compound 0.002 µM): 0.558
- relative viability (PC-3 [JPC-3]; first compound 0.006325 µM): 0.544
- relative viability (PC-3 [JPC-3]; first compound 0.02 µM): 0.518
- relative viability (PC-3 [JPC-3]; first compound 0.06325 µM): 0.473
- relative viability (PC-3 [JPC-3]; first compound 0.2 µM): 0.436
- relative viability (H3255; first compound 0.002 µM): 0.325
- relative viability (H3255; first compound 0.006325 µM): 0.304
- relative viability (H3255; first compound 0.02 µM): 0.308
- relative viability (H3255; first compound 0.06325 µM): 0.281
- relative viability (H3255; first compound 0.2 µM): 0.296
- relative viability (NCI-H3122; first compound 0.002 µM): 0.173
- relative viability (NCI-H3122; first compound 0.006325 µM): 0.233
- relative viability (NCI-H3122; first compound 0.02 µM): 0.173
- relative viability (NCI-H3122; first compound 0.06325 µM): 0.197
- relative viability (NCI-H3122; first compound 0.2 µM): 0.196
- relative viability (LXF-289; first compound 0.002 µM): 0.582
- relative viability (LXF-289; first compound 0.006325 µM): 0.569
- relative viability (LXF-289; first compound 0.02 µM): 0.601
- relative viability (LXF-289; first compound 0.06325 µM): 0.574
- relative viability (LXF-289; first compound 0.2 µM): 0.535
- relative viability (NCI-H441; first compound 0.002 µM): 0.243
- relative viability (NCI-H441; first compound 0.006325 µM): 0.215
- relative viability (NCI-H441; first compound 0.02 µM): 0.143
- relative viability (NCI-H441; first compound 0.06325 µM): 0.102
- relative viability (NCI-H441; first compound 0.2 µM): 0.1
- relative viability (EKVX; first compound 0.002 µM): 0.431
- relative viability (EKVX; first compound 0.006325 µM): 0.364
- relative viability (EKVX; first compound 0.02 µM): 0.184
- relative viability (EKVX; first compound 0.06325 µM): 0.342
- relative viability (EKVX; first compound 0.2 µM): 0.138
- relative viability (NCI-H2170; first compound 0.002 µM): 0.41
- relative viability (NCI-H2170; first compound 0.006325 µM): 0.383
- relative viability (NCI-H2170; first compound 0.06325 µM): 0.376
- relative viability (NCI-H2170; first compound 0.2 µM): 0.315
- relative viability (NCI-H1650; first compound 0.002 µM): 0.305
- relative viability (NCI-H1650; first compound 0.006325 µM): 0.302
- relative viability (NCI-H1650; first compound 0.02 µM): 0.168
- relative viability (NCI-H1650; first compound 0.06325 µM): 0.106
- relative viability (NCI-H1650; first compound 0.2 µM): 0.127
- relative viability (EPLC-272H; first compound 0.002 µM): 0.285
- relative viability (EPLC-272H; first compound 0.006325 µM): 0.317
- relative viability (EPLC-272H; first compound 0.02 µM): 0.284
- relative viability (EPLC-272H; first compound 0.06325 µM): 0.311
- relative viability (EPLC-272H; first compound 0.2 µM): 0.0905
- relative viability (HOP-62; first compound 0.002 µM): 0.451
- relative viability (HOP-62; first compound 0.006325 µM): 0.449
- relative viability (HOP-62; first compound 0.02 µM): 0.594
- relative viability (HOP-62; first compound 0.06325 µM): 0.384
- relative viability (HOP-62; first compound 0.2 µM): 0.235
- relative viability (SW 1573; first compound 0.002 µM): 0.426
- relative viability (SW 1573; first compound 0.006325 µM): 0.344
- relative viability (SW 1573; first compound 0.02 µM): 0.396
- relative viability (SW 1573; first compound 0.06325 µM): 0.101
- relative viability (SW 1573; first compound 0.2 µM): 0.0763
